Data: patent US9844536B2, “3-(1H-imidazo[4,5-C]pyridin-2-yl)-1H-pyrazolo[3,4-C]pyridine and therapeutic uses thereof” (Samumed, LLC, priority 2014, dated 2017)

Columns and labels:
[1] = test system: Wnt pathway (Sp5-Luc reporter, SW480 cells); test: Sp5-Luc reporter gene screening assay for Wnt activity in SW480 colon carcinoma cells; type: cell-based; details: Homo sapiens
Source text: The screening assay for Wnt activity is described as follows. Reporter cell lines can be generated by stably transducing cancer cell lines (e.g., colon cancer) or primary cells (e.g., IEC-6 intestinal cells) with a lentiviral construct that includes a Wnt-responsive promoter driving expression of the firefly luciferase gene.
SW480 colon carcinoma cells were transduced with a lentiviral vector expressing luciferase with a human Sp5 promoter consisting of a sequence of eight TCF/LEF binding sites. SW480 cells stably expressing the Sp5-Luc reporter gene and a hygromycin resistance gene were selected by treatment with 150 μg/ml of hygromycin for 7 days. These stably transduced SW480 cells were expanded in cell culture and used for all further screening activities. For Sp5-Luc reporter gene assays, the cells were plated at 10,000 cells/well in 96-well plates with growth medium containing 10% fetal calf serum and incubated overnight at 37° C. and 5% CO2. Each compound was dissolved in DMSO as a 10 mM stock in standard j-vials and used to prepare compound source plates in dose-response format with 3-fold serial dilutions and a 10 mM top concentration. Compound transfer from serially diluted source plates to assay plates containing the cells was accomplished using a pintool (Multimek 96, Beckman equipped with V&P Scientific FP1S50H pins) based liquid handling protocol. This protocol used a slotted pin to transfer 50 nl of compound from a source plate well to an assay plate well containing 50 μl of cells in growth medium. […] Control wells received 50 nl of DMSO treatment for normalization and calculating IC50 values. The treated cells were incubated at 37° C. and 5% CO2 for an additional forty-two hours. Following incubation, the growth medium was removed and 50 μl of BrightGlo luminescence reagent (Promega) was added to each well of the 96-well assay plates. The plates were placed on an orbital shaker for 5 min and then luminescence was quantified on the Victor3 (Perkin Elmer) plate reader. Readings were normalized to DMSO only treated cells, and normalized activities were utilized for IC50 calculations using the dose-response log (inhibitor) vs. response-variable slope (four parameters) nonlinear regression feature available in GraphPad Prism 5.0 or 6.0.

LL29 cells = test: Inhibition of the fibrotic process (αSMA staining) in TGF-β1 treated primary human fibroblasts from IPF patients; type: cell-based; details: Fibroblast, 96 h, TGF-β1 20 ng/mL, 4 days, dose-response 10 μM to 1.87 nM, read-out: Inhibition of fibrosis EC50
Source text: The above synthesized compounds were screened using primary human fibroblasts (derived from IPF patients) treated with TGF-β1 to determine their ability to inhibit the fibrotic process.
Primary human fibroblasts derived from IPF patients (LL29 cells) [^1Xiaoqiu Liu, et. al., “Fibrotic Lung Fibroblasts Show Blunted Inhibition by cAMP Due to Deficient cAMP Response Element-Binding Protein Phosphorylation”, Journal of Pharmacology and Experimental Therapeutics (2005), 315(2), 678-687; ^2Watts, K. L., et. al., “RhoA signaling modulates cyclin D1 expression in human lung fibroblasts; implications for idiopathic pulmonary fibrosis”, Respiratory Research (2006), 7(1), 88] were obtained from American Type Culture Collection (ATCC) and expanded in F12 medium supplemented with 15% Fetal Bovine Serum and Penicillin/Streptomycin.
Each compound was dissolved in DMSO as a 10 mM stock and used to prepare compound source plates. Serial dilution (1:2, 11-point dose-response curves from 10 μM to 1.87 nM) and compound transfer was performed using the ECHO 550 (Labcyte, Sunnyvale, Calif.) into 384-well clear bottom assay plates (Greiner Bio-One) with appropriate DMSO backfill for a final DMSO concentration of 0.1%. LL29 cells were plated at 1,500 cells/well in 80 μl/well F12 medium supplemented with 1% Fetal Bovine Serum. One hour after addition of the cells, TGF-β1 (Peprotech; 20 ng/mL) was added to the plates to induce fibrosis (ref. 1 and 2 above). Wells treated with TGF-β1 and containing DMSO were used as controls. Cells were incubated at 37° C. and 5% CO2 for 4 days. Following incubation for 4 days, SYTOX green nucleic acid stain (Life Technologies [Thermo Fisher Scientific]) was added to the wells at a final concentration of 1 uM and incubated at room temperature for 30 min. Cells were then fixed using 4% formaldehyde (Electron Microscopy Sciences), washed 3 times with PBS followed by blocking and permeabilization using 3% Bovine Serum Albumin (BSA; Sigma) and 0.3% Triton X-100 (Sigma) in PBS. Cells were then stained with antibody specific to α-smooth muscle actin (αSMA; Abcam) (ref. 1 and 2 above) in 3% Bovine Serum Albumin (BSA; Sigma) and 0.3% Triton X-100 (Sigma) in PBS, and incubated overnight at 4° C. Cells were then washed 3 times with PBS, followed by incubation with Alexa Flor-647 conjugated secondary antibody (Life Technologies [Thermo Fisher Scientific]) and DAPI at room temperature for 1 hour. Cells were then washed 3 times with PBS and plates were sealed for imaging. αSMA staining was imaged by excitation at 630 nm and emission at 665 nm and quantified using the Compartmental Analysis program on the CellInsight CX5 (Thermo Scientific). Dead or apoptotic cells were excluded from analysis based on positive SYTOX green staining. % of total cells positive for αSMA were counted in each well and normalized to the average of 11 wells treated with TGF-31 on the same plate using Dotmatics' Studies Software. The normalized averages (fold change over untreated) of 3 replicate wells for each compound concentration were used to create dose-responses curves and EC50 values were calculated using non-linear regression curve fit in the Dotmatics' Studies Software. The EC50 values are reported.

| SMILES | IC50 [1] | EC50 (LL29 cells) |
| --- | --- | --- |
| CN1CCN(c2nccc3[nH]c(-c4n[nH]c5cnc(-c6cncc(NC(=O)C7CCCC7)c6)cc45)nc23)CC1 [Compound 229, N-(5-(3-(4-(4-Methylpiperazin-1-yl)-1H-imidazo[4,5-c]pyridin-2-yl)-1H-pyrazolo[3,4-c]pyridin-5-yl)pyridin-3-yl)cyclopentanecarboxamide] | > 10 µM | ≥ 9.99 µM |
| O=C(Nc1cncc(-c2cc3c(-c4nc5c(-c6ccc(F)s6)nccc5[nH]4)n[nH]c3cn2)c1)C1CCC1 [Compound 358, N-(5-(3-(4-(5-Fluorothiophen-2-yl)-1H-imidazo[4,5-c]pyridin-2-yl)-1H-pyrazolo[3,4-c]pyridin-5-yl)pyridin-3-yl)cyclobutanecarboxamide] | 0.0137 µM | 0.04 µM |
| CC(C)CC(=O)Nc1cncc(-c2cc3c(-c4nc5c(-c6ccsc6)nccc5[nH]4)n[nH]c3cn2)c1 [Compound 262, 3-Methyl-N-(5-(3-(4-(thiophen-3-yl)-1H-imidazo[4,5-c]pyridin-2-yl)-1H-pyrazolo[3,4-c]pyridin-5-yl)pyridin-3-yl)butanamide] | 0.139 µM | ≥ 9.99 µM |
| CN(C)Cc1cncc(-c2cc3c(-c4nc5c(N6CCCCC6)nccc5[nH]4)n[nH]c3cn2)c1 [Compound 169, N,N-Dimethyl-1-(5-(3-(4-(piperidin-1-yl)-1H-imidazo[4,5-c]pyridin-2-yl)-1H-pyrazolo[3,4-c]pyridin-5-yl)pyridin-3-yl)methanamine] | > 10 µM | 3.11 µM |
| CN(C)c1cncc(-c2cc3c(-c4nc5c(-c6cccs6)nccc5[nH]4)n[nH]c3cn2)c1 [Compound 319, N,N-Dimethyl-5-(3-(4-(thiophen-2-yl)-1H-imidazo[4,5-c]pyridin-2-yl)-1H-pyrazolo[3,4-c]pyridin-5-yl)pyridin-3-amine] | 0.0534 µM | ≤ 0.009 µM |
| CCNCc1cncc(-c2cc3c(-c4nc5c(-c6ccc(C)s6)nccc5[nH]4)n[nH]c3cn2)c1 [Compound 370, N-((5-(3-(4-(5-Methylthiophen-2-yl)-1H-imidazo[4,5-c]pyridin-2-yl)-1H-pyrazolo[3,4-c]pyridin-5-yl)pyridin-3-yl)methyl)ethanamine] | 0.0391 µM | 0.578 µM |
| CN1CCN(c2nccc3[nH]c(-c4n[nH]c5cnc(-c6cncnc6)cc45)nc23)CC1 [Compound 234, 3-(4-(4-Methylpiperazin-1-yl)-1H-imidazo[4,5-c]pyridin-2-yl)-5-(pyrimidin-5-yl)-1H-pyrazolo[3,4-c]pyridine] | 0.745 µM | 1.38 µM |
| CC(C)CC(=O)Nc1cncc(-c2cc3c(-c4nc5c(-c6ccccn6)nccc5[nH]4)n[nH]c3cn2)c1 [Compound 132, 3-Methyl-N-(5-(3-(4-(pyridin-2-yl)-1H-imidazo[4,5-c]pyridin-2-yl)-1H-pyrazolo[3,4-c]pyridin-5-yl)pyridin-3-yl)butanamide] | 0.198 µM | 0.685 µM |
| O=C(Nc1cncc(-c2cc3c(-c4nc5c(-c6cccc(F)c6)nccc5[nH]4)n[nH]c3cn2)c1)C1CC1 [Compound 19, N-(5-(3-(4-(3-Fluorophenyl)-1H-imidazo[4,5-c]pyridin-2-yl)-1H-pyrazolo[3,4-c]pyridin-5-yl)pyridin-3-yl)cyclopropanecarboxamide] | 0.0256 µM | ≤ 0.009 µM |
| CCNCc1cncc(-c2cc3c(-c4nc5c(-c6ccccn6)nccc5[nH]4)n[nH]c3cn2)c1 [Compound 136, N-((5-(3-(4-(Pyridin-2-yl)-1H-imidazo[4,5-c]pyridin-2-yl)-1H-pyrazolo[3,4-c]pyridin-5-yl)pyridin-3-yl)methyl)ethanamine] | 0.834 µM | ≤ 0.009 µM |
| CC(C)C(=O)Nc1cncc(-c2cc3c(-c4nc5c(-c6ccccc6F)nccc5[nH]4)n[nH]c3cn2)c1 [Compound 61, N-(5-(3-(4-(2-Fluorophenyl)-1H-imidazo[4,5-c]pyridin-2-yl)-1H-pyrazolo[3,4-c]pyridin-5-yl)pyridin-3-yl)isobutyramide] | 0.192 µM | 0.153 µM |
| Fc1cccc(-c2nccc3[nH]c(-c4n[nH]c5cnc(-c6cncc(CN7CCC(F)(F)C7)c6)cc45)nc23)c1 [Compound 25, 5-(5-((3,3-Difluoropyrrolidin-1-yl)methyl)pyridin-3-yl)-3-(4-(3-fluorophenyl)-1H-imidazo[4,5-c]pyridin-2-yl)-1H-pyrazolo[3,4-c]pyridine] | 0.0308 µM | 0.185 µM |
| COc1cc(F)cc(-c2nccc3[nH]c(-c4n[nH]c5cnc(-c6cncc(NC(=O)CC(C)C)c6)cc45)nc23)c1 [Compound 1394, N-(5-(3-(4-(3-Fluoro-5-methoxyphenyl)-1H-imidazo[4,5-c]pyridin-2-yl)-1H-pyrazolo[3,4-c]pyridin-5-yl)pyridin-3-yl)-3-methylbutanamide] | 0.151 µM | 0.332 µM |
| CC(C)Nc1cncc(-c2cc3c(-c4nc5c(-c6cc(F)cc(NCCN(C)C)c6)nccc5[nH]4)n[nH]c3cn2)c1 [Compound 454, N^1-(3-Fluoro-5-(2-(5-(5-(isopropylamino)pyridin-3-yl)-1H-pyrazolo[3,4-c]pyridin-3-yl)-1H-imidazo[4,5-c]pyridin-4-yl)phenyl)-N2,N2-dimethylethane-1,2-diamine] | 0.266 µM | 1.62 µM |
| CC(=O)c1ccc(-c2nccc3[nH]c(-c4n[nH]c5cnc(-c6cncc(NC(=O)Cc7ccccc7)c6)cc45)nc23)s1 [Compound 400, N-(5-(3-(4-(5-Acetylthiophen-2-yl)-1H-imidazo[4,5-c]pyridin-2-yl)-1H-pyrazolo[3,4-c]pyridin-5-yl)pyridin-3-yl)-2-phenylacetamide] | > 10 µM | ≤ 0.009 µM |
| CC(C)CC(=O)Nc1cncc(-c2cc3c(-c4nc5c(-c6ccc(F)cc6)nccc5[nH]4)n[nH]c3cn2)c1 [Compound 28, N-(5-(3-(4-(4-Fluorophenyl)-1H-imidazo[4,5-c]pyridin-2-yl)-1H-pyrazolo[3,4-c]pyridin-5-yl)pyridin-3-yl)-3-methylbutanamide] | 0.175 µM | 0.553 µM |
| CC(C)C(=O)Nc1cncc(-c2cc3c(-c4nc5c(-c6cccnc6)nccc5[nH]4)n[nH]c3cn2)c1 [Compound 87, N-(5-(3-(4-(Pyridin-3-yl)-1H-imidazo[4,5-c]pyridin-2-yl)-1H-pyrazolo[3,4-c]pyridin-5-yl)pyridin-3-yl)isobutyramide] | > 10 µM | ≥ 9.99 µM |
| Fc1ccc(-c2nccc3[nH]c(-c4n[nH]c5cnc(-c6cncc(CN7CCCC7)c6)cc45)nc23)cc1 [Compound 40, 3-(4-(4-Fluorophenyl)-1H-imidazo[4,5-c]pyridin-2-yl)-5-(5-(pyrrolidin-1-ylmethyl)pyridin-3-yl)-1H-pyrazolo[3,4-c]pyridine] | > 10 µM | ≥ 9.99 µM |
